In PMC5591577, “Computationally-guided optimization of small-molecule inhibitors of the Aurora A kinase–TPX2 protein–protein interaction” (Chemical Communications (Cambridge, England), 2017):

Columns and labels:
Aurora A kinase [1] = target: T1, Aurora A kinase (Homo sapiens, UniProt O14965); test: X-ray crystal structure (Ki by fluorescence anisotropy, from ref […]); type: binding; set-up: gene AURKA; details: cited from earlier work
T1 sequence (O14965 1-403): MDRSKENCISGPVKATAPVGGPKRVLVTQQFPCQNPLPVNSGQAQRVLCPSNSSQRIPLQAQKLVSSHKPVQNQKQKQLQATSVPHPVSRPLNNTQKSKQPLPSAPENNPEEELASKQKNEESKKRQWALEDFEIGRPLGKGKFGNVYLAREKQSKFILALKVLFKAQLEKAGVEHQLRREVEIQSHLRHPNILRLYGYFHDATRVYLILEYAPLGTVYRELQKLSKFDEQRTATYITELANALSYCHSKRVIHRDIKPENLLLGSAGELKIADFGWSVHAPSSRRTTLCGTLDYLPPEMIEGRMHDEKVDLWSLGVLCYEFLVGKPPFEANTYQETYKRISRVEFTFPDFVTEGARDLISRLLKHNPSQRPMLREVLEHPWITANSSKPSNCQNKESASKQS

Aurora A kinase [2] = target: T1, Aurora A kinase; test: fluorescence anisotropy competition assay (TPX2 displacement); type: binding; set-up: gene AURKA; with TPX2; details: read-out: K i ^b

Row | Structure (SMILES) | Ki (Aurora A kinase [1]) | Ki (Aurora A kinase [2])
1 | O=C(O)c1cc(-c2cccc(F)c2)nc2ccccc12 [compound 2] | 16.5 µM | 
2 | Cc1ccc(-c2cc(C(=O)O)c3ccccc3n2)cc1F [compound 9] |  | 8.7 µM
3 | Cc1ccc(-c2cc(C(=O)O)c3ccccc3n2)cc1Br [compound 10] |  | 2.3 µM
